# From article PMC9916163, “Evaluation of the Cytotoxic Effect of Pd2Spm against Prostate Cancer through Vibrational Microspectroscopies” (International Journal of Molecular Sciences, 2023)
# Read-outs that look alike come from different tables or passages of the source.
# Tests used:
# PC-3 cell line = test: MTT cytotoxicity assay, PC-3 cells; format: cell-based, human; conditions: prostate cancer cells, read-out: Half maximal inhibitory concentration (IC50) PC-3
# Method: (§1) The human prostate cancer (PC-3 and LNCaP) and non-tumorigenic (PNT-2) cell lines were obtained from the ECCAC Culture Collections and supplied by Sigma-Aldrich Chemical S.A. (Sintra, Portugal). They were cultured as monolayers, at 37 °C, in a humidified atmosphere of 5% CO2. The cultures were maintained in RPMI-1640 culture medium, supplemented with 10% (v/v) heat-inactivated FBS and 1% (v/v) penicillin/streptomycin. The cells were subcultured at 80% confluence, using 0.05% trypsin-EDTA (1×) in PBS.
# (§2) For all cell lines (PC-3, LNCaP and PNT-2), cell cultures were established in 96-well plates (100 µL/well) at a density of 3 × 10^4 cells/cm^2, and were allowed to attach for 24 h. Triplicates were treated for different incubation periods (three independent experiments) with a range of concentrations between 2 and 32 µM of the tested compounds (cisplatin and Pd2Spm). According to the population doubling time for all cell lines (ca. 24 h), 24, 48, and 72 h timepoints after drug administration were chosen.
# (§3) In order to evaluate cell viability, the MTT assay was used. Briefly, at each time-point, the growth media was removed, cells were washed with PBS and MTT solution (2.5 mg/mL) was added to each well (100 µL). After 3 h of incubation at 37 °C, the formazan crystals were solubilized in DMSO (100 µL), and the absorbance was measured at 570 nm.
# (§4) Cells viability data results are expressed as mean ± standard error of the mean (SEM) and compared with non-treated controls. Statistical analysis was carried out through one-way ANOVA followed by Tukey’s multiple comparison test. A p-value < 0.05 was considered statistically significant.
# PNT-2 = test system: PNT-2; parameters: method as in PMID 34277574; conditions: 96 h, MTT method; read-out: Value previously reported (IC50) PNT-2; cited from earlier work
# PC-3 [1] = test system: PC-3; parameters: method as in PMID 17541592; conditions: 72 h, SRB method; read-out: Value previously reported (IC50) PC-3; cited from earlier work
# LNCaP cell line = test: MTT cytotoxicity assay, LNCaP cells; format: cell-based, human; conditions: prostate cancer cells, read-out: Half maximal inhibitory concentration (IC50) LNCaP
# Method: as §1, §2, §3, §4
# PC-3 [2] = test system: PC-3; parameters: method as in PMID 24366574; conditions: 48 h, MTT method; read-out: Value previously reported (IC50) PC-3; cited from earlier work
# PNT-2 cell line = test: MTT cytotoxicity assay, PNT-2 cells; format: cell-based, human; conditions: prostate non-cancer cells, read-out: Half maximal inhibitory concentration (IC50) PNT-2
# Method: as §1, §2
# In order to evaluate cell viability, the MTT assay was used. […] After 3 h of incubation at 37 °C, the formazan crystals were solubilized in DMSO (100 µL), and the absorbance was measured at 570 nm.
# Cells viability data results are expressed as mean ± standard error of the mean (SEM) and compared with non-treated controls. […]
# LNCaP = test system: LNCaP; parameters: method as in PMID 17541592; conditions: 48 h, SRB method; read-out: Value previously reported (IC50) LNCaP; cited from earlier work
smiles,measurement,setting,value
"N.N.[Cl][Pt][Cl] [Cisplatin, cis-dichlorodiammine platinum(II)]",IC50,PC-3 cell line; 24 h incubation,25.6 µM
same,IC50,PC-3 cell line; 48 h incubation,3 µM
same,IC50,PC-3 cell line; 72 h incubation,0.7 µM
same,IC50,PNT-2,8.5 µM
same,IC50,PC-3 [1],1 µM
same,IC50,LNCaP cell line; 24 h incubation,13.6 µM
same,IC50,LNCaP cell line; 48 h incubation,7.3 µM
same,IC50,LNCaP cell line; 72 h incubation,2.7 µM
same,IC50,PC-3 [2],10.6 µM
same,IC50,PNT-2 cell line; 48 h incubation,5.2 µM
same,IC50,PNT-2 cell line; 72 h incubation,2.4 µM
same,IC50,LNCaP,3.7 µM
